Measured values published in patent US11331327B2, “Antibacterial use of halogenated salicylanilides” (UNION therapeutics A/S, priority 2014, dated 2022).
Where “and” joins values, the source holds several entries; their conditions need not be identical. Identical values can stand only once. Like-named read-outs stand apart in the source and are kept apart here. Marks after values point to notes of the source that are not given here.

Key:
[1] = system: MRSA 01, MRSA 15, MRSA 16; assay: Mutational frequency evaluation, Example 1; assay type: cell-based, Staphylococcus aureus; details: for Resistance mutation rate at MIC × 1: tested against one strain: MRSA 01; for mutational frequency at MIC×1: text summary of Table 4
Protocol: Adequate dilutions were plated on plates without the compound.
Viable cell growth was enumerated after 48 hours of incubation at 37° C.
Ten replicates were carried out for each strain and fusidic acid, mupirocin and retapamulin were used as controls for the MRSA 01 strain.

S. aureus strains = assay: Minimum Inhibitory Concentration (MIC) assay, Example 1, S. aureus strains; assay type: cell-based; details: Staphylococcus aureus, read-out: Mic100 S. aureus
Protocol: (§1) Strains were conserved in Luria Bertani (LB) Broth (S. aureus) or Brain Heart Infusion (BHI) (S. pyogenes) supplemented with glycerol 15% (v/v) at −80° C., and reactivated by isolation on LB (S. aureus) or BHI (S. pyogenes) agar plates. Strains were cultivated in Mueller Hinton (MH) Broth-cation adjusted (S. aureus) supplemented with lysed horse blood 2.5% (v/v) (S. pyogenes). All strains were cultivated at 37° C., aerobically for S. aureus strains.
(§2) Bacterial cultures were stopped in their exponential growth phase and plates were inoculated with the approximate concentration of 10^3 cells per well. Plates were incubated at 37° C. for 18 hours (S. aureus) or 24 hours (S. pyogenes). Optical density at a wavelength of 600 nm was measured at the end of the incubation time. […] Experiments were performed at least as triplicate biological replicates with all strains.

S. pyogenes strains = assay: Minimum Inhibitory Concentration (MIC) assay, Example 1, S. pyogenes strains; assay type: cell-based, Streptococcus pyogenes; details: Streptococcus pyogenes, read-out: Mic100 S. pyogenes
Protocol: as §1, §2

[2] = cited from earlier work; for LD50 rats p.o: Table 3
[3] = in vivo; cited from earlier work
[4] = cited from earlier work
[5] = tested against one strain: S. pyogenes 01

| Structure (SMILES) | Resistance mutation rate at MIC × 1 [1] | mutational frequency at MIC×1 [1] | MIC (S. aureus strains; S. aureus strains) | MIC (S. pyogenes strains; [5]) | LD50 rats p.o [2] [mg/kg] | LD50 ([2]; rats, p.o.) | MIC (S. aureus strains; tested against one strain: MRSA 01) | safety margin after oral administration [3] | LD50 mice p.o ([4]; Table 3) [mg/kg] | LD50 ([4]; mice, p.o.) [mg/kg] | MIC (S. aureus strains; MRSA) | MIC (S. pyogenes strains) | LD50 median ([2]; rats, p.o., median of studies) [mg/kg] |
| --- | --- | --- | --- | --- | --- | --- | --- | --- | --- | --- | --- | --- | --- |
| Cc1cc(C(C#N)c2ccc(Cl)cc2)c(Cl)cc1NC(=O)c1cc(I)cc(I)c1O (stereo not drawn) [Closantel, N-[5-chloro-4-[(4-chlorophenyl)cyanomethyl]-2-methylphenyl]-2-hydroxy-3,5-diiodobenzamide] | = 2 × 10^−8* | 2×10^−8 | ≤ 1.7 µg/mL and ≤ 2.5 µM | 12.8 µg/mL and 19 µM | 300 | 262 to 342 mg/kg | – | – | – | – | – | – | – |
| O=C(Nc1cc(Cl)cc(Cl)c1O)c1c(O)c(Cl)cc(Cl)c1Cl [Oxyclozanide, 3,3′,5,5′,6-pentachloro-2′-hydroxysalicylanilide] | – | 1×10^−7 | – | 6.4 µg/mL and 15.9 µM | 980 to 3500 | 980 to 3519 mg/kg | 1.6 µg/mL and 4 µM | Low safety margin | – | – | – | – | – |
| O=C(Nc1ccc(Oc2ccc(Cl)cc2)c(Cl)c1)c1cc(I)cc(I)c1O [Rafoxanide, 3′-chloro-4′-(p-chlorophenoxy)-3,5-diiodosalicylanilide] | = 5 × 10^−9* | 5×10^−9 | – | – | 1500 | 980->2000 mg/kg | – | – | 270 | 232 to 300 | 0.8 µg/mL and 1.25 µM | 6.4 µg/mL and 10 µM | > 1490 |
